Test [1] has as its target T1, Ba/F3-Syk cells (Homo sapiens, UniProt P43405).
T1 construct: fused on or other part: Possible but unprinted fusion partner: TEL (ETV6), the usual partner for Ba/F3 lines transformed by Syk; Nothing on a partner is printed
Put plainly: Ba/F3 Proliferation Assay, Ba/F3-Syk cells (Resazurin). Particulars: 48-hour incubation. Type of test: cell-based. On the procedure: (§1) Ba/F3-Syk and Ba/F3-WT (wild type) cells were maintained at ≤1×10^6 cell/mL in RPMI (Life Technologies) with 10% FBS at 37° C. and 5% CO2 for a maximum of four weeks. Ba/F3-WT additionally contained 2 ng/mL mIL-3 (R&D Systems) to induce cellular growth. Cells were counted and dispensed at 5000 cells/well using a Multidrop Liquid Dispenser in a volume of 45 μL into black 384-well TC treated plates (Greiner) and incubated for four hours in complete media (+mIL-3 for Ba/F3-WT). Compounds were serially diluted in 100% DMSO, prior to an intermediate dilution in RPMI media. 5 μL of compound (0.4% final DMSO) was added to the cells, followed by a 48-hour incubation period. 5 μL of Resazurin (60 μM final) was then added and cells were incubated at 37° C. for three hours, before fluorescence (λex530/λem585) was measured using an Ensight Multimode Plate Reader (Perkin Elmer).
(In general: Resazurin is reduced to fluorescent resorufin, in cell work by metabolically active cells.)

Test [2] concerns Ba/F3-WT (wild type) cells. Put plainly: Ba/F3 Proliferation Assay, Ba/F3-WT (wild type) cells with mIL-3 (Resazurin). The test is classed as cell-based. Particulars: Ba/F3-WT cells +mIL-3, 48-hour incubation. On the procedure: as §1

Results on 24 compounds are retold here after patent publication US20250263408A1 (Uniquest Pty Ltd, priority 2022, published 2025).

For orientation: EC50 means the concentration at which the effect is half-maximal. A higher EC50 goes with a need for much substance.

With `c1cnc2cc(-c3ccns3)nc(OC[C@@H]3CNCCO3)c2c1` [Compound 13.1, 5-{[(2S)-morpholin-2-yl]methoxy}-7-(1,2-thiazol-5-yl)-1,6-naphthyridine], the half-maximal effective concentration (EC50) in test [1] is 586 nM; in test [2] (Mus musculus, BaF3, 48 h) it was 6360 nM.

Turning to `C[C@@H]1CNC[C@@H](COc2cc(-c3cnn(C)c3)cc3nccnc23)O1` [Compound 12.5, 7-(1-methyl-1H-pyrazol-4-yl)-5-{[(2S,6R)-6-methylmorpholin-2-yl]methoxy}quinoxaline], the EC50 in test [1] amounted to 50.9 nM; in test [2] (Mus musculus, BaF3, 48 h), 1300 nM.

For the compound `CC1(C)CNC[C@@H](COc2cc(-c3cnn4c3CCCC4)cc3ncccc23)O1` [Compound 11.2, 5-{[(2S)-6,6-dimethylmorpholin-2-yl]methoxy}-7-{4H,5H,6H,7H-pyrazolo[1,5-a]pyridin-3-yl}quinoline], the EC50 in test [1] amounted to 637 nM; in test [2] (Mus musculus, BaF3, 48 h), 8460 nM.

In the case of `CCn1ccc(-c2cc(OC[C@@H]3CNCC(C)(C)O3)c3nccnc3c2)c1` [Compound 8.21, 5-{[(2S)-6,6-dimethylmorpholin-2-yl]methoxy}-7-(1-ethyl-1H-pyrrol-3-yl)quinoxaline], the EC50 in test [1] was 10 nM; in test [2] (Mus musculus, BaF3, 48 h), 951 nM.

As for `CC(C)n1ccc(-c2cc(OC[C@@H]3CNCC4(CC4)O3)c3cccnc3c2)c1` [Compound 7.13, 5-{[(5S)-4-oxa-7-azaspiro[2.5]octan-5-yl]methoxy}-7-[1-(propan-2-yl)-1H-pyrrol-3-yl]quinoline], the concentration giving a half-maximal response (EC50) turned out to be 22.4 nM in test [1] and 4020 nM in test [2] (Mus musculus, BaF3, 48 h).

With `FC1(F)CC(Cn2ccc(-c3cc4ncccc4c(OC[C@@H]4CNCCO4)n3)c2)C1` [Compound 6.42, 7-{1-[(3,3-difluorocyclobutyl)methyl]-1H-pyrrol-3-yl}-5-{[(2S)-morpholin-2-yl]methoxy}-1,6-naphthyridine], the EC50 was found to be 15.1 nM in test [1] and 838 nM in test [2] (Mus musculus, BaF3, 48 h).

On to `Cn1ccc(-c2cc(OC[C@@H]3CNCC4(CCC4)O3)c3cccnc3c2)c1` [Compound 11.6, 7-(1-methyl-1H-pyrrol-3-yl)-5-{[(6S)-5-oxa-8-azaspiro[3.5]nonan-6-yl]methoxy}quinoline], for which the EC50 in test [1] was 33.4 nM; in test [2] (Mus musculus, BaF3, 48 h) it was 1790 nM.

As for `CC[C@H](C)n1ccc(-c2cc(OC[C@@H]3CNCCO3)c3nccnc3c2)c1` [Compound 8.25, 7-{1-[(2S)-butan-2-yl]-1H-pyrrol-3-yl}-5-{[(2S)-morpholin-2-yl]methoxy}quinoxaline], the EC50 in test [1] was 11.5 nM; in test [2] (Mus musculus, BaF3, 48 h) it was more than 1000 nM.

Regarding `FC(F)c1csc(-c2cc(OC[C@@H]3CNCCO3)c3cccnc3c2)c1` [Compound 14.4, 7-[4-(difluoromethyl)thiophen-2-yl]-5-{[(2S)-morpholin-2-yl]methoxy}quinoline], the EC50 in test [1] was determined as 196 nM; in test [2] (Mus musculus, BaF3, 48 h), 1900 nM.

Turning to `COCCn1ccc(-c2cc(OC[C@@H]3CNCCO3)c3cccnc3c2)c1` [Compound 7.9, 7-[1-(2-methoxyethyl)-1H-pyrrol-3-yl]-5-{[(2S)-morpholin-2-yl]methoxy}quinoline], the EC50 came out at 234 nM in test [1] and 2440 nM in test [2] (Mus musculus, BaF3, 48 h).

On to `Cc1cc(-c2cc3ncccc3c(OC[C@@H]3CNCCO3)n2)c(C)n1C` [Compound 2.40, 5-{[(2S)-morpholin-2-yl]methoxy}-7-(1,2,5-trimethyl-1H-pyrrol-3-yl)-1,6-naphthyridine], for which the EC50 is 645 nM in test [1] and more than 10000 nM in test [2] (Mus musculus, BaF3, 48 h).

Regarding `COCCn1ccc(-c2cc(OC[C@@H]3CNCCO3)c3nccnc3c2)c1` [Compound 8.7], the EC50 was 15.1 nM in test [1] and 621 nM in test [2].

For `c1cnc2cc(-c3ccn(C4CCC4)c3)cc(OC[C@@H]3CNCCO3)c2c1` [Compound 7.3, 7-(1-cyclobutyl-1H-pyrrol-3-yl)-5-{[(2S)-morpholin-2-yl]methoxy}quinoline], the EC50 came to 74 nM in test [1] and 2880 nM in test [2] (Mus musculus, BaF3, 48 h).

For `CC[C@@H](C)n1cc(-c2cc3ncccc3c(OC[C@@H]3CNCCO3)n2)cn1` [Compound 6.32, 7-{1-[(2R)-butan-2-yl]-1H-pyrazol-4-yl}-5-{[(2S)-morpholin-2-yl]methoxy}-1,6-naphthyridine], the EC50 in test [1] stood at 92 nM; in test [2] (Mus musculus, BaF3, 48 h) it was 2020 nM.

With `CCn1ccc(-c2cc(OC[C@@H]3CNCCCO3)c3nccnc3c2)c1` [Compound 8.9, 7-(1-ethyl-1H-pyrrol-3-yl)-5-{[(2S)-1,4-oxazepan-2-yl]methoxy}quinoxaline], the EC50 came to 20.5 nM in test [1] and 1620 nM in test [2] (Mus musculus, BaF3, 48 h).

With `CC1(C)CNC[C@@H](COc2nc(-c3cnn(C(C)(C)C)c3)cc3nccc(C(F)(F)F)c23)O1` [Compound 14.13, 7-(1-tert-butyl-1H-pyrazol-4-yl)-5-{[(2S)-6,6-dimethylmorpholin-2-yl]methoxy}-4-(trifluoromethyl)-1,6-naphthyridine], the EC50 amounted to 20 nM in test [1] and 865 nM in test [2] (Mus musculus, BaF3, 48 h).

Turning to `CC(C)(C)n1cc(-c2cc3ncccc3c(OC[C@H]3O[C@H]4CCN[C@@H]3C4)n2)cn1` (single isomer, unassigned) [Compound 13.12], the values for the EC50 in test [1] and in test [2] were 74.4 nM and more than 5000 nM, respectively.

On to `Cc1cnc2cc(-c3cnn(C(C)C)c3)nc(OC[C@@H]3CNCC(C)(C)O3)c2c1` [Compound 14.10, 5-{[(2S)-6,6-dimethylmorpholin-2-yl]methoxy}-3-methyl-7-[1-(propan-2-yl)-1H-pyrazol-4-yl]-1,6-naphthyridine], for which the EC50 in test [1] was 44.9 nM; in test [2] (Mus musculus, BaF3, 48 h), 1070 nM.

Regarding `CC1(C)CNC[C@@H](COc2nc(-c3ccn(C4CCC4)c3)cc3ncccc23)O1` [Compound 6.14, 7-(1-cyclobutyl-1H-pyrrol-3-yl)-5-{[(2S)-6,6-dimethylmorpholin-2-yl]methoxy}-1,6-naphthyridine], the EC50 in test [1] worked out at 14.3 nM; in test [2] (Mus musculus, BaF3, 48 h), 1800 nM.

As to `c1cnc2cc(-c3ccn(CC4CC4)c3)nc(OC[C@@H]3CNCCO3)c2c1` [Compound 6.4, 7-[1-(cyclopropylmethyl)-1H-pyrrol-3-yl]-5-{[(2S)-morpholin-2-yl]methoxy}-1,6-naphthyridine], the EC50 in test [1] came to 74.8 nM; in test [2] (Mus musculus, BaF3, 48 h), 2650 nM.

For `COCCn1ccc(-c2cc(OC[C@@H]3CNCC(C)(C)O3)c3c(C)ccnc3c2)c1` [Compound 14.11, 5-{[(2S)-6,6-dimethylmorpholin-2-yl]methoxy}-7-[1-(2-methoxyethyl)-1H-pyrrol-3-yl]-4-methylquinoline], the EC50 stood at 6.1 nM in test [1] and 803 nM in test [2] (Mus musculus, BaF3, 48 h).

Consider `FC(F)Cn1ccc(-c2cc(OC[C@@H]3CNCCCO3)c3nccnc3c2)c1` [Compound 8.20, 7-[1-(2,2-difluoroethyl)-1H-pyrrol-3-yl]-5-{[(2S)-1,4-oxazepan-2-yl]methoxy}quinoxaline], for which the EC50 came out at 27.6 nM in test [1] and 1860 nM in test [2] (Mus musculus, BaF3, 48 h).

As to `C[C@@H]1NCCO[C@@H]1COc1nc(-c2ccn(C)c2)cc2ncccc12` [Compound 13.5, 7-(1-methyl-1H-pyrrol-3-yl)-5-{[(2S,3S)-3-methylmorpholin-2-yl]methoxy}-1,6-naphthyridine], the EC50 was 51.7 nM in test [1] and 6310 nM in test [2] (Mus musculus, BaF3, 48 h).

In the case of `CC(C)n1cc(-c2cc(OC[C@@H]3CNCC4(CC4)O3)c3nccnc3c2)cn1` [Compound 12.2, 5-{[(5S)-4-oxa-7-azaspiro[2.5]octan-5-yl]methoxy}-7-[1-(propan-2-yl)-1H-pyrazol-4-yl]quinoxaline], the EC50 in test [1] came out at 29.1 nM; in test [2] (Mus musculus, BaF3, 48 h) it was 1620 nM.
